Measurements published in US20110105389A1 (priority 2009, published 2011).

System: male Zucker fatty rats
Assay: Subchronic (7 day) oral administration in male Zucker fatty rats, Method B14
Format: in vivo, rat
Source text: B14. Effects of Subchronic Administration of Representative Compounds of the Invention in Male Zucker Fatty Rats
The objective of this study is to determine the subchronic effects of test compounds on body weight change, food and water consumption, as well as glucose homeostasis and insulin levels in male Zucker fatty rats up to 7 days upon oral administration. The male Zucker fatty rat was selected as an insulin resistance and genetically defined obesity model which is sensitive to the effect of different insulin sensitizers in acute as well as in chronic settings.
Rats were individually housed in rodent cages with soft wood bedding on the bottom and equipped with water bottles. All individual cages were clearly labeled with a cage card indicating study number, group, animal number and dose level. Each animal was uniquely identified by an animal number. The animal number was designated the day the animals arrived at the animal facility. The animal room environment was controlled (targeted ranges: temperature 22±2° C.; relative humidity 50±10%; light/dark cycle: 12 hours light, 12 hours dark, lights on from 06:00 AM to 06:00 PM). A regular rodent diet (Charles River 5075 rodent chow, Purina Mills, Canada) was provided to the animals ad libitum, after food weighing. Municipal tap water was provided to the animals ad libitum via water bottles. Fresh tap water was provided after water bottle weighing.
An acclimation period of approximately 7 days for all groups was allowed between the receipt of animals and the start of treatment to accustom the rats to the laboratory environment. On experimental day −7, animals were stratified according to body weight into an appropriate number of groups of 4 or 8 animals each.
Test compound was administered, as a solution, orally, at the doses indicated. The dose volume was 5 mL/kg/day. Groups were dosed once daily around 8:00 a.m. On Day 3, on half of the animals (Subset A) and on Day 4 on the other half (Subset B), an OGTT was performed 2 hrs post-dosing (around 10:00 a.m.). The OGTT was repeated the same way on Days 7 (Subset A) and 8 (Subset B).
For the study animals, the data collected from study Days −7 to 8 are reported. Body weights were recorded for all animals on Day −7 prior to initiation of dosing, at the time of group assignment and daily throughout the study period (Day 1-8). Food and water intake was measured daily throughout the study period (Day 1-8). On Day 1 (Subset A), Day 2 (Subset B), Day 3 (Subset A), Day 4 (Subset B), Day 7 (Subset A) and Day 8 (Subset B), animals from Groups 2 and 3 were sampled for blood into EDTA coated tubes (K2-EDTA microtainer tubes, Becton Dickinson) from a tail vein (˜100 μl) 2 hrs post-dose for PK analysis. Blood was centrifuged at 4000 rpm for 10 min. at 4° C., and the resulting plasma transferred into non-coated tubes and stored at −80° C. until analysis.
An oral glucose tolerance test (OGTT) was carried out in animals of all groups on Day 3 (half of the animals) as well as on day 4 (other half of the animals). This was done 2 hrs post-dose. Animals were subjected to an overnight fast (food removed the day before at 5:00 PM). Blood samples of approximately 20 μL each for plasma glucose and 230 μL for plasma insulin measurements were collected into EDTA coated tubes (K2-EDTA microtainer tubes, Becton Dickinson) from a tail vein, at 0 (pre-glucose), 15, 30, 60, and 120 min after oral administration of 1.5 g/kg glucose (dextrose, Sigma Aldrich, 450 mg/mL dosing solution). The glucose solution was administered by oral gavage via a stainless steel feeding needle (18×2″, Popper @ Sons, cat. # 20068-642, VWR). While glucose concentrations were determined from a 20 μL drop of blood (Accu-Chek Aviva glucometers, Roche Diagnostics), the remaining 230 μL was centrifuged at 4000 rpm for 10 min. at 4° C., and the resulting plasma transferred into non-coated tubes and stored a −80° C. for insulin determination. […]

plasma levels (PK analysis) (oral administration): sufficient plasma levels
SMILES: CC[C@@H]1CCc2ccc(F)cc2OCCN[C@@H](C(C)C)C(=O)N(C)[C@@H](C(C)O)C(=O)N[C@H](Cc2c[nH]c3ccccc23)C(=O)N1 (some centres unmarked) [Compound 1505]
food consumption on a daily basis vs vehicle controls (10 mg/kg, 2 day timepoint): significant reductions
cumulative food consumption (30 mg/kg oral, FIG. 10): significant decrease
net body weight (30 mg/kg oral, over the 7 day study period, FIG. 9): significant reduction
food consumption on a daily basis vs vehicle controls (30 mg/kg, 2 day timepoint): significant reductions
OGTT blood glucose versus untreated controls (30 mg/kg, at both day 3 and day 7): decrease
insulin sensitivity index (attaining significance at the higher dose): higher
free fatty acids (both treatment groups): significantly reduced
total cholesterol (both treatment groups): significantly reduced
food consumption on a daily basis vs vehicle controls (higher dose (30 mg/kg), through the 6 day timepoint): remained significant
insulin levels (area under the curve, AUC) in OGTT (rat, in vivo): lowering effect
